According to PMC3819915, “Stable Suppression of Lactate Dehydrogenase Activity during Anoxia in the Foot Muscle of Littorina littorea and the Potential Role of Acetylation as a Novel Posttranslational Regulatory Mechanism” (Enzyme Research, 2013):

How the values were obtained:
[1] = test system: T1, LDH (D-lactate specific LDH, D-LDH) from foot muscle, aerobic control; test: NADH absorbance at […] nm, microplate; format: biochemical, Littorina littorea; settings: assay direction not stated for this effector, presumably pyruvate-reducing (pH 6.5, 2.5 mM pyruvate, 0.25 mM NADH); 25°C; control enzyme
T1 construct: native enzyme from foot muscle of aerobic control snails, partially purified on blue agarose; more acetylated than the 24 h anoxic form

[2] = test system: T1, LDH (D-lactate specific LDH, D-LDH) from foot muscle, aerobic control; test: NADH absorbance at […] nm, microplate; format: biochemical, Littorina littorea; settings: 25°C, control enzyme

IC50 [1]	Structure (SMILES)	also measured
23 ± 2 mM	Nc1ncnc2c1ncn2[C@@H]1O[C@H](COP(=O)(O)OP(=O)(O)O)[C@@H](O)[C@H]1O [ADP]	
13 ± 1 mM	Nc1ncnc2c1ncn2[C@@H]1O[C@H](COP(=O)(O)OP(=O)(O)OP(=O)(O)O)[C@@H](O)[C@H]1O [ATP]	
	C[C@@H](O)C(=O)O [D-lactate]	Km ([2]; D-lactate-oxidizing direction, 25 mM KH2PO4 pH 9.5, 3 mM NAD+): 25 ± 2 mM
	CC(=O)C(=O)O [pyruvate]	Km ([2]; 25 mM KH2PO4 pH 6.5, 0.25 mM NADH): 0.29 ± 0.01 mM
